Measured values: patent US11897862B2 (Gilead Sciences, Inc., priority 2022, dated 2024)

Assays:
Format in all cases: cell-based
IKZF2 [1] = target: T1, IKZF2 (Homo sapiens, UniProt Q96SW2+Q9UKS7); test: HEK293 HiBiT in vitro degradation of IKZF2; parameters: expressed in transfected cells; conditions: for DC50: 18-24 hr incubation, normalized to DMSO control, read-out: IKZF2 EC50; for IKZF2 Dmax / Dmax: maximum degradation at the highest concentration tested
Method in brief: (§1)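 Read-out: Nano-Glo lytic HiBiT luminescence after 18-24 h compound exposure at 37 °C, fitted to EC50 and Dmax. Cells were Flp-In T-REx HEK293 expressing linker-HiBiT fused to the C-terminus of each target, doxycycline-induced ([…] final) overnight beforehand.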
Target sequence in this assay (Q9UKS7 1-500 isoform Q9UKS7-2): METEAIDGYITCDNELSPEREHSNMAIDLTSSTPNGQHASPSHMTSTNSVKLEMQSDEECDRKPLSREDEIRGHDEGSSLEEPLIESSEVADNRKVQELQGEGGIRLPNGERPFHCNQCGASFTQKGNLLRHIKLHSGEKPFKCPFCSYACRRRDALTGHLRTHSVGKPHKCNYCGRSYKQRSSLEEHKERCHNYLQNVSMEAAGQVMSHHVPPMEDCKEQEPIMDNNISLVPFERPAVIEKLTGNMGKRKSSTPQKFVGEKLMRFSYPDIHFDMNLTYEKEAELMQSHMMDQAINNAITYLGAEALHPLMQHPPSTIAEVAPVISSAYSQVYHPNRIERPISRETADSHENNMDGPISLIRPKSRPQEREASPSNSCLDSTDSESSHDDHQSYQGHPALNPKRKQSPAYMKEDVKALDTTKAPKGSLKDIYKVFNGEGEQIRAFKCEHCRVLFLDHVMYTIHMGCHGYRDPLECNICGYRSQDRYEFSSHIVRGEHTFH
Target sequence in this assay (Q96SW2 whole entry, the tested form may be a part): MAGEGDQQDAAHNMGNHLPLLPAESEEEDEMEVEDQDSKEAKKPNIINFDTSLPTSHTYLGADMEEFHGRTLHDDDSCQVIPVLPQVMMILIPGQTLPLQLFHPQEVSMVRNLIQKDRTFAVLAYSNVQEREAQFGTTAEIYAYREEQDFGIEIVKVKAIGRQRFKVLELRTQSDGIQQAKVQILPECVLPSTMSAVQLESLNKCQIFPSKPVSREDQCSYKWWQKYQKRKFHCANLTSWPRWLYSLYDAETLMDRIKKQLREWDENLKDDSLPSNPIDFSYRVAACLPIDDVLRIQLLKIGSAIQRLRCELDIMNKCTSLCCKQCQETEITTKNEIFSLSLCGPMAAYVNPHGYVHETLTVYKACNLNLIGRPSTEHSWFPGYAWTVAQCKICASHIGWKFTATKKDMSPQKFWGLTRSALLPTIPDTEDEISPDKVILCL
Target sequence in this assay (Q16531 whole entry partner, the tested form may be a part): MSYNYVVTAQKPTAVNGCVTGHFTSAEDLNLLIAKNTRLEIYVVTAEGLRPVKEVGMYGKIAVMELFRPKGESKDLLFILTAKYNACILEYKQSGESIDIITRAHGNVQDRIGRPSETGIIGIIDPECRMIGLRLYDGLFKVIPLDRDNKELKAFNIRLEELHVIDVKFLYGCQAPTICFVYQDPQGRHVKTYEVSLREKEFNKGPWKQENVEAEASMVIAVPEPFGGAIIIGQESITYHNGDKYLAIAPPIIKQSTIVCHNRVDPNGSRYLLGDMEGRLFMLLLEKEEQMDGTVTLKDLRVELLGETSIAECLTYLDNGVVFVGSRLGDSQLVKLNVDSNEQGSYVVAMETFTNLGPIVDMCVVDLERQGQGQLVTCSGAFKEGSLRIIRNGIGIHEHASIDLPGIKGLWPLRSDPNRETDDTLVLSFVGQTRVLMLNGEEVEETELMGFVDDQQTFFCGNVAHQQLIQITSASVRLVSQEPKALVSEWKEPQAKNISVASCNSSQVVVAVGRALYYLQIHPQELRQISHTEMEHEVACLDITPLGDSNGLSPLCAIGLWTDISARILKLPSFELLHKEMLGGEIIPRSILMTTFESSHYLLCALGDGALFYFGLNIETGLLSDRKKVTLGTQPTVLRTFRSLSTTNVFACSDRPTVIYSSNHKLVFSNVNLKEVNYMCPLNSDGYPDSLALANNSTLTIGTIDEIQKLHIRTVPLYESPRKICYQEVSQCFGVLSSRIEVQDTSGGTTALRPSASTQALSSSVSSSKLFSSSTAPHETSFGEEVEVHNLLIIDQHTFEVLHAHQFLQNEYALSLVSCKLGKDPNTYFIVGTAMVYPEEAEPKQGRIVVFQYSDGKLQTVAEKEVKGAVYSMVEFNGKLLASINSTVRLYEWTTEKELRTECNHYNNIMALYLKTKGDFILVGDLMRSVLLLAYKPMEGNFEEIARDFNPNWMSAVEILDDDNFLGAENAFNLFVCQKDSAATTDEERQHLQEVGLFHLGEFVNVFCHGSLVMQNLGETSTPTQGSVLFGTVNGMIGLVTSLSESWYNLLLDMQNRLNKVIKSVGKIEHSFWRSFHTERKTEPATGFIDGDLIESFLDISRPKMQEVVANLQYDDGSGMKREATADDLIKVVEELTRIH

IKZF1 = target: T2, IKZF1 (Homo sapiens, UniProt Q13422+Q96SW2); test: HEK293 HiBiT in vitro degradation of IKZF1; conditions: for DC50: 18-24 hr incubation, normalized to DMSO control, read-out: IKZF1 EC50; for Dmax: HEK293, HEK293 HiBiT
T2 construct: expressed in transfected cells
T2 sequence (Q13422 whole entry): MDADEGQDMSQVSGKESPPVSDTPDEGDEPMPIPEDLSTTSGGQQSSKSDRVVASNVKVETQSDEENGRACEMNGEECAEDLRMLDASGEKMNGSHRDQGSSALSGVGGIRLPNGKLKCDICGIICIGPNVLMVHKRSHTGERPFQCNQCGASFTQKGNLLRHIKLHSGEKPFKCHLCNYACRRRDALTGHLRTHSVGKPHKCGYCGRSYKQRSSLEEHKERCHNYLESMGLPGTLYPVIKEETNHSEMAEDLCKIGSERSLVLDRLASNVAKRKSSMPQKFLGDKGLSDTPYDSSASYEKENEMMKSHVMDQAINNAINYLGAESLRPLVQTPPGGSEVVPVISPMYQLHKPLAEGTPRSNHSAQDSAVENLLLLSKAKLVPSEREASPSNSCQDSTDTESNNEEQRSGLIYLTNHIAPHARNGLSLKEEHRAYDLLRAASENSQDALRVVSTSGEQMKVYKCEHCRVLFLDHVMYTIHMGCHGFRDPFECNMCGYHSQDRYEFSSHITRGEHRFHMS
T2 sequence (Q96SW2 whole entry): as the sequence (Q96SW2 whole entry, the tested form may be a part) above
T2 sequence (Q16531 whole entry partner): as the sequence (Q16531 whole entry partner, the tested form may be a part) above
Method in brief: as §1

SALL4 = target: T3, SALL4 (Homo sapiens, UniProt Q96SW2+Q9UJQ4); test: HEK293 HiBiT in vitro degradation of SALL4; conditions: for DC50: 18-24 hr incubation, normalized to DMSO control, read-out: SALL4 EC50
T3 construct: expressed in transfected cells
T3 sequence (Q9UJQ4 whole entry): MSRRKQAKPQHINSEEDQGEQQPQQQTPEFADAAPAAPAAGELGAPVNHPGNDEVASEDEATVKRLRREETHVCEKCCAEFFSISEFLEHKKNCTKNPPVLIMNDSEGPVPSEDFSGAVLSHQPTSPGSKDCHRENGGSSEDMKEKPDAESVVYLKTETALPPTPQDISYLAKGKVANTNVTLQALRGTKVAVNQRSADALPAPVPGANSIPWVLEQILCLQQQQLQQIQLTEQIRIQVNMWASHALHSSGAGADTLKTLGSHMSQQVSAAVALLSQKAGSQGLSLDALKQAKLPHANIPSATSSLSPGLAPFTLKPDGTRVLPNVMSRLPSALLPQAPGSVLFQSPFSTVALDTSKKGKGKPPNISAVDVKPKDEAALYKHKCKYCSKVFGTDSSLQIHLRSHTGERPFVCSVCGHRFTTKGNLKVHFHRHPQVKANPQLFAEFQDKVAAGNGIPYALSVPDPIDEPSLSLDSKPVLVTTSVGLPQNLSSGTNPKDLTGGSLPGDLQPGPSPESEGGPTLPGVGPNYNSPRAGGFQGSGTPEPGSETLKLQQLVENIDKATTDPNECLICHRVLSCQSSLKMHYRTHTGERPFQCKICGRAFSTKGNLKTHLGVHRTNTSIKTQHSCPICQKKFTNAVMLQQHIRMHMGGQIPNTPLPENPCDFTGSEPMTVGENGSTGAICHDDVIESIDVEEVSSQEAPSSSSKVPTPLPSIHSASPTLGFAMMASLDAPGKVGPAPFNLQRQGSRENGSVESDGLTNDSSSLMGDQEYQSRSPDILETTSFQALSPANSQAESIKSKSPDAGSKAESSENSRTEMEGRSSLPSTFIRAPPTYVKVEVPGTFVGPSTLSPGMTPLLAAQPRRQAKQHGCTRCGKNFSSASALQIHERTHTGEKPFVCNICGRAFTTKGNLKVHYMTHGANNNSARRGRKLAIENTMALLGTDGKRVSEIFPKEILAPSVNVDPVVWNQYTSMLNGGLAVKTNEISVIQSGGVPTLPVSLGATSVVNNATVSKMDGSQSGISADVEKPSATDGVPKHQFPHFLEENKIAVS
T3 sequence (Q96SW2 whole entry): as the sequence (Q96SW2 whole entry, the tested form may be a part) above
T3 sequence (Q16531 whole entry partner): as the sequence (Q16531 whole entry partner, the tested form may be a part) above
Protocol: In vitro degradation of IKZF1, IKZF2, and SALL4 was measured using HiBiT protein tagging and detection technology (Promega).
HiBit technology was used to develop the quantitative assays to measure the cellular IKZFs level by tagging an 11 amino acid HiBit peptides […] to the protein of interest. Reporter plasmids were generated by fusing a linker sequence ([…]) followed by the HiBit tag at the C-terminus of IKZF1, IKZF2, and SALL4. The fusion fragments were subsequently cloned into pcDNA5 pcDNA™5/FRT/TO plasmids (Thermo Fisher, cat #V652020) downstream of the tetracycline operator. The resulting plasmids were co-transfected with pOG44 Flp-Recombinase Expression Vector (Thermo Fisher, cat #V600520) into Flp-In™ T-REx HEK293 line (Thermo Fisher, cat #R78077) and a stable cell pool was selected by adding 100 µg/ml of Hygromycin (Thermo Fisher, cat #10687010). The reporter cell enabled Tet-On inducible reporter expression from a single copy of the integrated gene.
On Day 1, Cells were grown to ˜80% confluency in tissue culture medium (DMEM Glutamax (Gibco10569), 10% Tet free FBS (Takara 631106), and PenStrep Glutamin (Gibco 10378)) in tissue culture flasks. Doxycycline was then added to a final concentration of […] to induce reporter expression at 37° C. overnight.
On Day 2, 125 nL of serially-diluted solution of testing compounds were dispensed into 384-well white solid assay plates via ECHO acoustic liquid handler. Cells were lifted by 0.25% Trypsin (Gibco 25200) then pelleted by centrifugation (Beckman Avanti J-E) at 500×g for 5 min. Cell pellets were resuspended in TC medium at the concentration of 3e5/mL and 25 μL of cell suspension were added into each well of compound-spotted plates. The plates were returned to a 37° C. incubator overnight (18-24 hr).
On Day 3, assay plates were removed from the tissue culture incubator and 25 μL of Nano-Glo lytic detection system (Promega, cat #N3030) was added to each well. Plates were incubated at r.t. for 3 min with shaking, and luminescence was read using an Envision reader (Perkin Elmer).
To assess the IKZF1, IKZF2, and SALL4 degrader potential of exemplified compounds of this disclosure and certain Reference Compounds EC50 and Dmax values were determined for the compounds of Examples 1 to 383 and Reference Compounds A-1, B-1, B-2, B-3, B-4, and C-1 in the HiBiT assays. Asterisks (*) indicate examples for which the data shown represents an average of n≥3.

IKZF2 [2] = target: T1, IKZF2; test: Human whole blood IKZF2 degradation (flow cytometry, CD4/CD25/Foxp3+ Treg cells); parameters: endogenous in cells; conditions: 24 hrs incubation, IKZF2 MFI in CD4/CD25/Foxp3+ Treg cells, flow cytometry
Method in brief: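 Fresh healthy-donor human whole blood stimulated with CD3/CD28 activator and serially diluted compound for 24 hrs at 37° C. IKZF2 MFI in CD4/CD25/Foxp3+ Tregs (IKZF1 MFI in CD4+ T cells) measured by flow cytometry after RBC lysis, fixation, permeabilization. EC50 and Dmax versus DMSO wells.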
Target sequence in this assay (Q9UKS7 whole entry, the tested form may be a part): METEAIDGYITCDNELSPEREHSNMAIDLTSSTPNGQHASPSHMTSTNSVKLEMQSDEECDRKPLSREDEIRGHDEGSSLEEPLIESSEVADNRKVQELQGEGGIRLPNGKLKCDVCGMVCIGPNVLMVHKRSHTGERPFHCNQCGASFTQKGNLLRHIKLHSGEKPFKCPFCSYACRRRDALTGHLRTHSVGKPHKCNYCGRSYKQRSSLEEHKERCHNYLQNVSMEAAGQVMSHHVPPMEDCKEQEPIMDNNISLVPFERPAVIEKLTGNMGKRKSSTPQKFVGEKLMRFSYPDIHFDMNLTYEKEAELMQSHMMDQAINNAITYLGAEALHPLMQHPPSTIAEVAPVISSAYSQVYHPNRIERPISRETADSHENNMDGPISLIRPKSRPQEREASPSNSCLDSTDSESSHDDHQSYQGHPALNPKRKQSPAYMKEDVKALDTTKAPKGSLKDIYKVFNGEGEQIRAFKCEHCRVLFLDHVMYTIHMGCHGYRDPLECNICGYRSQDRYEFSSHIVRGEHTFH
Target sequence in this assay (Q96SW2 whole entry, the tested form may be a part): as the sequence (Q96SW2 whole entry, the tested form may be a part) above
Target sequence in this assay (Q16531 whole entry partner, the tested form may be a part): as the sequence (Q16531 whole entry partner, the tested form may be a part) above

[3] = maximum degradation at the highest concentration tested

Compound | DC50 (IKZF2 [1]; HEK293 HiBiT) | IKZF2 Dmax (IKZF2 [1]; HEK293 HiBiT) | DC50 (IKZF1; HEK293 HiBiT) | DC50 (SALL4) | Dmax (IKZF2 [1]; HEK293, HEK293 HiBiT) | Dmax (IKZF1; [3]) | Dmax (IKZF2 [2]) | DC50 (IKZF2 [2]; read-out: IKZF2 EC50) | IKZF1 Dmax (IKZF1; HEK293 HiBiT, maximum degradation at the highest concentration tested) | Dmax (SALL4; [3]) | Dmax (IKZF2 [1]; HEK293 HiBiT)
COCC1CCC(N[C@H]2CCCO[C@@H]2Cc2ccc3c(c2F)CN(C2CCC(=O)NC2=O)C3=O)CC1 (single isomer, unassigned) [Example 265] | 3 nM | 96% | > 1000 nM | > 10000 nM |  |  |  |  |  |  | 
O=C1CCC(N2Cc3c(ccc(C[C@H]4OCCC[C@@H]4N[C@H]4CC[C@@H](F)CC4)c3F)C2=O)C(=O)N1 (single isomer, unassigned) [Example 290] | 4 nM |  | 138 nM | > 10000 nM | 98% | 27% | 96% | 6 nM |  |  | 
COC1(C)CCC(N[C@H]2CCCO[C@@H]2Cc2ccc3c(c2F)CN(C2CCC(=O)NC2=O)C3=O)CC1 (single isomer, unassigned) [Example 316] | 7 nM |  | > 1000 nM | > 10000 nM | 95% |  |  |  |  |  | 
O=C1CCC(N2Cc3c(ccc(C[C@H]4OCCC[C@@H]4NC4CCC(OC(F)F)CC4)c3F)C2=O)C(=O)N1 (single isomer, unassigned) [Example 327] | 3 nM | 96% | 535 nM | > 10000 nM |  |  |  |  |  |  | 
O=C1CC[C@H](N2Cc3c(ccc(C[C@H]4OCCC[C@@H]4N[C@H]4CC[C@H](C(F)F)CC4)c3F)C2=O)C(=O)N1 (single isomer, unassigned) [Example 330] | 3 nM |  | 37 nM | > 10000 nM | 94% | 28% |  |  |  |  | 
O=C1CC[C@@H](N2Cc3c(ccc(C[C@H]4OCCC[C@@H]4N[C@H]4CC[C@H](C(F)F)CC4)c3F)C2=O)C(=O)N1 (single isomer, unassigned) [Example 331] | 4 nM |  | 448 nM | > 10000 nM | 96% |  |  |  |  |  | 
O=C1CC[C@H](N2Cc3c(ccc(C[C@H]4OCCC[C@@H]4NC4CCC(F)(F)CC4)c3F)C2=O)C(=O)N1 (single isomer, unassigned) [Example 332] | 6 nM |  | > 1000 nM | > 10000 nM | 95% |  |  |  |  |  | 
O=C1CC[C@@H](N2Cc3c(ccc(C[C@H]4OCCC[C@@H]4NC4CCC(F)(F)CC4)c3F)C2=O)C(=O)N1 (single isomer, unassigned) [Example 333] | 9 nM |  | 210 nM | > 10000 nM | 94% |  |  |  |  |  | 
O=C1CCC(N2Cc3c(ccc(C[C@H]4OCCC[C@@H]4NC4CCC5(CC4)CC5(F)F)c3F)C2=O)C(=O)N1 (single isomer, unassigned) [Example 364] | 3 nM |  | 45 nM | > 10000 nM | 96% | 37% |  |  |  |  | 
O=C1CCC(N2Cc3c(ccc(C[C@H]4OCCC[C@@H]4NC4CCN(CC(F)(F)F)CC4)c3F)C2=O)C(=O)N1 (stereo partly drawn) [Example 308] | 12 nM |  | > 1000 nM | > 10000 nM | 96% |  |  |  |  |  | 
O=C1CCC(N2Cc3c(ccc(C[C@H]4OCCC[C@@H]4NC4CCN(CC(F)F)CC4)c3F)C2=O)C(=O)N1 (stereo partly drawn) [Example 309] | 16 nM |  | > 1000 nM | > 10000 nM |  |  |  |  |  |  | 96%

Second part, led by results:

DC50 (IKZF2 [1]; HEK293 HiBiT) | IKZF2 Dmax (IKZF2 [1]; HEK293 HiBiT) | DC50 (IKZF1; HEK293 HiBiT) | DC50 (SALL4) | Dmax (IKZF2 [1]; HEK293, HEK293 HiBiT) | Dmax (IKZF1; [3]) | Dmax (IKZF2 [2]) | DC50 (IKZF2 [2]; read-out: IKZF2 EC50) | IKZF1 Dmax (IKZF1; HEK293 HiBiT, maximum degradation at the highest concentration tested) | Dmax (SALL4; [3]) | Compound | Dmax (IKZF2 [1]; HEK293 HiBiT)
3 nM |  | 16 nM | > 10000 nM | 95% | 71% |  |  |  |  | CC1CC[C@H](NC2CCC(F)(F)CC2)[C@@H](Cc2ccc3c(c2)CN(C2CCC(=O)NC2=O)C3=O)C1 (single isomer, unassigned) [Example 324] | 
1 nM |  | 13 nM | > 10000 nM | 97% | 59% |  |  |  |  | O=C1CC[C@H](N2Cc3c(ccc(C[C@H]4CCCC[C@@H]4NC4CCC(F)(F)CC4)c3F)C2=O)C(=O)N1 (single isomer, unassigned) [Example 334] | 
1 nM |  | 16 nM | > 10000 nM | 97% | 62% |  |  |  |  | O=C1CC[C@@H](N2Cc3c(ccc(C[C@H]4CCCC[C@@H]4NC4CCC(F)(F)CC4)c3F)C2=O)C(=O)N1 (single isomer, unassigned) [Example 335] | 
11 nM |  | 114 nM | > 10000 nM | 97% | 39% |  |  |  |  | O=C1CCC(N2Cc3cc(C[C@H]4CCCC[C@@H]4NC4CCc5c(C(F)(F)F)n[nH]c5C4)ccc3C2=O)C(=O)N1 (single isomer, unassigned) [Example 362] | 
1 nM | 97% | 50 nM | > 10000 nM |  |  |  |  | 56% |  | O=C1CCC(N2Cc3cc(C[C@H]4CCCC[C@@H]4NC4CCc5c(C(F)(F)F)n[nH]c5C4)ccc3C2=O)C(=O)N1 (single isomer, unassigned) [Example 363] | 
17 nM |  | > 1000 nM | > 10000 nM | 85% |  |  |  |  |  | O=C1CCC(N2Cc3cc(C[C@H]4OCCC[C@@H]4NC4CCC(F)CC4)ccc3C2=O)C(=O)N1 (single isomer, unassigned) [Example 366] | 
15 nM | 87% | > 1000 nM | > 10000 nM |  |  |  |  |  |  | O=C1CCC(N2Cc3cc(C[C@H]4OCCC[C@@H]4NC4CCC(F)CC4)ccc3C2=O)C(=O)N1 (single isomer, unassigned) [Example 367] | 
1 nM |  | 79 nM | > 10000 nM | 97% | 42% |  |  |  |  | O=C1CCC(N2Cc3cc(C[C@H]4C[C@H](F)CC[C@@H]4NC4CCC(F)(F)CC4)ccc3C2=O)C(=O)N1 (stereo partly drawn) [Example 169] | 
1 nM |  | 35 nM | > 10000 nM | 97% | 62% |  |  |  |  | [2H]C1(N[C@H]2CCCC[C@@H]2Cc2ccc3c(c2F)CN(C2CCC(=O)NC2=O)C3=O)CCC(F)(F)CC1 (stereo partly drawn) [Example 209] | 
6 nM |  | 41 nM | > 10000 nM | 93% | 51% |  |  |  |  | CO[C@H]1CC[C@H](Cc2ccc3c(c2)CN(C2CCC(=O)NC2=O)C3=O)[C@@H](NC2CCC(F)(F)CC2)C1 (stereo partly drawn) [Example 344] | 
3 nM |  | 323 nM | 3100 nM | 99% | 47% |  |  |  | 47% | O=C1CCC(N2Cc3cc(C[C@H]4CCCC[C@@H]4NC4CCc5[nH]nc(C(F)(F)F)c5C4)ccc3C2=O)C(=O)N1 (stereo partly drawn) [Example 352] | 
5 nM |  | 73 nM | > 10000 nM | 97% | 48% |  |  |  |  | Cn1ncc2c1CCC(N[C@H]1CCCC[C@@H]1Cc1ccc3c(c1)CN(C1CCC(=O)NC1=O)C3=O)C2 (stereo partly drawn) [Example 377] | 
